Source: patent US11819500B2, “T-cell regulation in t-cell mediated diseases by reducing pathogenic function of TH17 in a human subject through treatment with a nitroxide” (priority 2016, dated 2023)

Experiments:
[1] = test system: Bag5; experiment: Gene expression in cardiac tissue after Tempol administration (chip-based microarray); type: in vivo; conditions: mice aged 31 months, Tempol 5 mg/g of food from 14 to 31 months, control mice 300
Protocol: (§1) To assess the effects of Tempol on gene expression, Tempol was administered to experimental mice at a dose of 5 mg/g of food from 14 months to 31 months after birth. Mice receiving the same food without the addition of Tempol were used as a negative control. At the age of 31 months, the experimental animals were sacrificed and the hearts were surgically removed. The expression of a broad spectrum of genes in the cardiac tissue was assessed using chip-based microarray technology. Such chips are well known in the art and are widely used to assess gene expression.

[2] = test system: Bri3; experiment: as above; type: in vivo; conditions: mice aged 31 months, Tempol 5 mg/g of food from 14 to 31 months, control mice 1549
Protocol: as §1

[3] = test system: Cd5l; experiment: as above; type: in vivo; conditions: mice aged 31 months, Tempol 5 mg/g of food from 14 to 31 months, control mice 150
Protocol: as §1

[4] = test system: Perp; experiment: as above; type: in vivo; conditions: mice aged 31 months, Tempol 5 mg/g of food from 14 to 31 months, control mice 49
Protocol: as §1

[5] = test system: Unc5b; experiment: as above; type: in vivo; conditions: mice aged 31 months, Tempol 5 mg/g of food from 14 to 31 months, control mice 103
Protocol: as §1

[6] = test system: Cd5l, Perp, Unc5b, Bag5 or Bri3; conditions: human, in vivo
[7] = test system: Bri3; experiment: Serum level of Bri3 after Tempol treatment of a human subject; type: in vivo; conditions: human subject with or at risk of a neurodegenerative disease (e.g., Alzheimer's Disease); 1500 mg per day for 180 days
Protocol: A human subject is administered a dose of 1500 mg of Tempol (or a nitroxide antioxidant) per day for 180 days. The human subject may be a 70-kilogram human subject over the age of 65. The human subject may be at risk of developing a neurodegenerative disease (e.g., Alzheimer's Disease), may have symptoms of a neurodegenerative disease, and/or may have a neurodegenerative disease. The risk, the symptoms, or the neurodegenerative disease may be caused by decreased expression level of Bri3. The human subject can be identified. The dose may be administered in a single dose, or may be administered as a number of smaller doses over a 24-hour period: for example, three 500-mg doses at eight-hour intervals. Following treatment, the serum level of Bri3 is increased. Increased Bri3 expression can inhibit amyloid precursor protein (APP) processing and amyloid plaque deposition, thus suppressing or reversing development of the neurodegenerative disease.

[8] = test system: Cd5l; experiment: Serum level of Cd5l after Tempol treatment of a human subject; type: in vivo; conditions: 1500 mg per day for 180 days
Protocol: A human subject is administered a dose of 1500 mg of Tempol (or a nitroxide antioxidant) per day for 180 days. The human subject may be a 70-kilogram human subject. The human subject may be at risk of having pathogenic T-helper cell activity, may have symptoms of pathogenic T-helper cell activity, and/or may have a disease (e.g., an autoimmune disease) associated with pathogenic T-helper cell activity (e.g., pathogenic T-helper 17 cell activity). The autoimmune disease may be mediated by IL-23 as an effector molecule. The human subject can be identified. The dose may be administered in a single dose, or may be administered as a number of smaller doses over a 24-hour period: for example, three 500-mg doses at eight-hour intervals. Following treatment, the serum level of Cd5l is increased. Increased Cd5l expression can alter lipid biosynthesis within the T-helper cell, thus suppressing the pathogenic T-helper cell activity and/or reversing the effect of the pathogenic T-helper cell activity.
A human subject is administered a dose of 1500 mg of Tempol (or a nitroxide antioxidant) per day for 180 days. The human subject may be a 70-kilogram human subject. The human subject may be at risk of developing an autoimmune disease, may have symptoms of an autoimmune disease, and/or may have an autoimmune disease. The autoimmune disease may be mediated by IL-23 as an effector molecule. […]

[9] = test system: Perp; experiment: Level of Perp after Tempol treatment of a human subject; type: in vivo; conditions: 70-kilogram human subject with a disorder such as a desmosome-associated disorder; 1500 mg per day for 180 days
Protocol: A human subject is administered a dose of 1500 mg of Tempol (or a nitroxide antioxidant) per day for 180 days. The human subject is a 70-kilogram human subject. The human subject may have a disorder (such as a desmosome-associated disorder, which can be associated or characterized by damaged epithelial tissue). The human subject can be identified. The dose may be administered in a single dose, or may be administered as a number of smaller doses over a 24-hour period: for example, three 500-mg doses at eight-hour intervals. Following treatment, the level (e.g., the serum level) of Perp is increased, which can in turn increase desmosome function (e.g., characterized by epithelial integrity)

Q: What does the source list for `CC1(C)CC(O)CC(C)(C)N1[O]` [Tempol, 4-hydroxy-2,2,6,6-tetramethylpiperidine-1-oxyl]?
A: Bag5 expression, Tempol-treated mice [1]: 370; Bri3 expression, Tempol-treated mice [2]: 1835; Cd5l expression, Tempol-treated mice [3]: 406; Perp expression, Tempol-treated mice [4]: 82; Unc5b expression, Tempol-treated mice [5]: 172; serum level of Cd5l, Perp, Unc5b, Bag5 or Bri3 [6]: increased; serum level of Bri3 [7]: increased; serum level of Cd5l ([8]; human subject with or at risk of developing an autoimmune disease): increased; serum level of Cd5l ([8]; human subject with or at risk of pathogenic T-helper cell activity): increased; level (e.g., the serum level) of Perp [9]: increased
